Test results published in patent US20220228124A1, “Three-Dimensional Cross-Linked Scaffolds Of Peripheral Blood Plasma And Their Use” (SANFORD HEALTH, priority 2019, published 2022).

Experiments:
[1] = test system: EpCAM+ BCa cells from patient biopsies; experiment: Survival of primary patient BCa cells in matched-plasma 3DeTME cultures; assay type: cell-based, human; settings: 7 days
Experimental: Methods: To evaluate the association between different variables, correlation tests were performed using the ggpubr R™ package. The Pearson correlation (r) was assessed in order to measure the linear dependence between two variables after confirmation of a normal distribution of the data. In order to assess the predictive value of the drug response metrics obtained in the 3DeTME assays with cell lines, we compared them with metric data obtained from literature relevant for 2D models (IC50) and other 3D models (IC50), as well as effective concentrations in patients from phase I or II studies that examined the pharmacokinetics of the tested chemotherapies (steady state concentration, Css). A scatterplot correlation graph allowed us to establish the strength, direction and form of the relationship between the in vitro models and the Css clinical data, with Pearson correlation coefficients (r) that were calculated to measure the strength of those relationships. […] Small organoids and single cells cultures were grown and analyzed at days 0.5 (γ0), 3, and 7. […] BCa cell counts were acquired and data was analyzed using FlowJo™ v10 (Ashland, Oreg.). Data was normalized to a predetermined number of counting beads, the proliferation of each condition (fold of γ0) and survival (% of control) was calculated and compared.

[2] = test system: fibrinogen found naturally in plasma; experiment: Cross-linking time of plasma into 3DeTME matrix; assay type: biochemical, human
Experimental: (§1) Methods: 3DeTME cultures are formed through the cross-linking of fibrinogen found naturally in plasma. Cross-linking time was assessed by measuring the time necessary to achieve matrix cross-linking using three relevant cross-linkers of the blood coagulation process including Thrombin (0-5 mg/ml), CaCl2 (0-5 mg/ml), and Factor XIII (0-6 mg/ml). The stabilization effects of preventing fibrin degradation and stability improvement in the scaffold was assessed by surveying several chemical antifibrinolytic agents including tranexamic acid (AMCHA) (0-10 mg/ml), Aprotinin ([…]), epsilon-aminocaproic acid (EACA) (0-2.5 mg/ml), and 4-aminomethylbenzoic acid (PAMBA) (0-2.5 mg/ml). The stability of the scaffold was studied by measuring each scaffold weight at day 0 and again measuring scaffold weight at the conclusion of a 3 week time period. 3DeTME culture scaffold structure and morphology was analyzed with scanning electron microscopy (SEM) using a FEI Quanta™ 450 Scanning Electron Microscope at multiple magnifications. The stiffness of the scaffolds was measured by atomic force microscopy (AFM). The Young's modulus was estimated by fitting a modified Hertz model onto the AFM indentation curve using the built in function of AFM software (Asylum Research). Plasma from cancer patients and healthy subjects was analyzed for fibrinogen content through the clotting method of Clauss. The Clauss fibrinogen assay is a quantitative, clot-based, functional assay. The assay measures the ability of fibrinogen to form fibrin clot after being exposed to a high concentration of purified thrombin. Briefly, plasma samples were loaded into the STA-R™ Evolution Expert Series Hemostasis System (Diagnostica Stago Inc., Parsippany, N.J.) and automated testing was carried out by the analyzer. […] 3DeTME culture supernatants were collected and analyzed by a C-Series Custom Cytokine Antibody Array (RayBiotech Inc., Norcross, Ga.) according to the instructions provided by the manufacturer. […] The chemiluminescence signal intensity of each spot was quantified by densitometric analysis (VisionWorks Software). […]

[3] = test system: three breast cancer (BCa) cell lines; experiment: 3DeTME drug screening, relative cell count and GR values; assay type: cell-based, human; settings: day 7; for response among the BCa cell lines: 3DeTME, 0.1 nM-300 μM
Experimental: (§2) Methods: Three breast cancer (BCa) cell lines were previously labeled with DiD and incorporated in 3DeTME. Half a day after plating, cells were treated with a DMSO control (γCtrl) and increasing concentrations 0.1 nM-300 μM of seven standard-of-care chemotherapeutic drugs including Methotrexate (MTX), Paclitaxel (PTX), Capecitabine (CAP), Cyclophosphamide Monohydrate (CYCLO), Carboplatin (CARBO), Epirubicin Hydrochloride (EPI), and Docetaxel (DTX). Treatments were added on top of 3DeTME in order to simulate drug diffusion into a tumor. Treatments were refreshed at day 4 and BCa cells were retrieved from the different cultures for analysis at day 0.5 (γ0) and day 7. Samples were prepared in PBS for flow cytometry by adding counting beads (424902, Biolegend, CA) in addition to SytoxTM green dead cell stain (excitation 504 nm, emission 523 nm) ([…], Thermo Fisher Scientific, MA) for viability to each sample. BCa cells were identified by gating live cells with a DiD+ signal using the FL4 channel on BD AccuriTM C6 instrument (CFlow Software) (BD Biosciences). A minimum of 5×103 events was acquired per sample and BCa cell counts were acquired and data was analyzed using the FlowJoTM v10 (Ashland, Oreg.) software. Relative cell count and Growth rate (GR) values. The GR values show the partial inhibition effect of the drug when it achieves GR values from 0 to 1, with the cytostatic effect being represented when the value is equal to 0 and the cytotoxic effect being represented when it lies between 0 and -1.

MDA-MB-231 = experiment: as above; assay type: cell-based, human; settings: 0.1 nM-300 μM, day 7
Experimental: as §2

[4] = test system: fibrin degradation in the scaffold; experiment: 3DeTME scaffold integrity and stability (weight) with antifibrinolytic agents; parameters: species or system human
Experimental: as §1

MCF7 = experiment: 3DeTME drug screening, relative cell count and GR values; assay type: cell-based, human; settings: 0.1 nM-300 μM, day 7
Experimental: Methods: Three breast cancer (BCa) cell lines were previously labeled with DiD and incorporated in 3DeTME. Half a day after plating, cells were treated with a DMSO control (γCtrl) and increasing concentrations 0.1 nM-300 μM of seven standard-of-care chemotherapeutic drugs including Methotrexate (MTX), Paclitaxel (PTX), Capecitabine (CAP), Cyclophosphamide Monohydrate (CYCLO), Carboplatin (CARBO), Epirubicin Hydrochloride (EPI), and Docetaxel (DTX). Treatments were added on top of 3DeTME in order to simulate drug diffusion into a tumor. Treatments were refreshed at day 4 and BCa cells were retrieved from the different cultures for analysis at day 0.5 (γ0) and day 7. Samples were prepared in PBS for flow cytometry by adding counting beads (424902, Biolegend, CA) in addition to SytoxTM green dead cell stain (excitation 504 nm, emission 523 nm) ([MUT], Thermo Fisher Scientific, MA) for viability to each sample. BCa cells were identified by gating live cells with a DiD+ signal using the FL4 channel on BD AccuriTM C6 instrument (CFlow Software) (BD Biosciences). A minimum of 5×103 events was acquired per sample and BCa cell counts were acquired and data was analyzed using the FlowJoTM v10 (Ashland, Oreg.) software. Relative cell count and Growth rate (GR) values. […]

[5] = test system: CD8+ T cell infiltration (PD-L1 blockade); experiment: CD8+ T cell infiltration into 3DeTME matrices seeded with BCa cells; assay type: cell-based, human; settings: 3DeTME tumorous (1.5% O2); 5 μM for the first 4 days; read at day 7
Experimental: Methods: 3DeTME cultures were grown with cancer cells for 4 days, while being exposed to variable O2 environments (21% and 1.5% O2). Peripheral blood mononuclear cells (PBMCs) were incorporated at day 4 as a cell suspension in the medium added on the top of the matrix, while being exposed to the same O2 environment up to day 7, (FIG. 5A). Oxygen partial pressure (pO2) levels were measured in BCa cell-seeded 3DeTME matrices incubated under variable O2 environments (21% and 1.5% O2) after 0, 2, 4 and 7 days of culture. 3DeTME scaffolds containing BCa cells were profiled along the z-direction with an oxygen microsensor (Needle-Type Oxygen Microsensor NTH-PSt7, PreSens, Regensburg, Germany) and a manual micromanipulator (FIG. 5B). Briefly, to record oxygen pressure, the sensor was introduced into the geometric center (3 measure points) of the 3DeTME and moved from the border between the media and 3DeTME (top) in 10 μm steps towards the bottom of the well plate, as illustrated in FIG. 5C. […]
Methods: Differences in lymphocyte infiltration into 3DeTME scaffolds as a result of different oxygen content were assessed. PBMCs were incorporated as cell suspension in the medium added on the top of the matrix at day 4 and analyzed at day 7. […] Mean absolute numbers of CD3+, CD4+, CD8+ and CD19+ cells (normalized to beads) were determined in each experimental group. […]

[6] = 5 and 10 mg/ml, weight at day 24 vs day 0

CC(C)(C#N)c1cc(Cn2cncn2)cc(C(C)(C)C#N)c1 [Arimidex]
activity at 45 µM ([1]; Homo sapiens, 168 h, "responder" patient, read-out: survival of BCa cells (% of control)): 17%
survival of BCa cells ([1]; patient with "resistance" clinical outcome, 45 μM): little to no effect

[Ca+2].[Cl-].[Cl-] [CaCl2, calcium chloride]
cross-linking time (fastest) ([2]; cross-linker at 1 mg/ml): 4 min

CCCCCOC(=O)Nc1nc(=O)n([C@@H]2O[C@H](C)[C@@H](O)[C@H]2O)cc1F [capecitabine, Capecitabine]
type of drug effect (GR value) ([3]; over the concentrations tested): cytostatic

N.N.O=C([O-])C1(C(=O)[O-])CCC1.[Pt+2] [carboplatin, Carboplatin]
sensitivity of the cell line relative to the other BCa cell lines (MDA-MB-231): most sensitive
response among the BCa cell lines [3]: heterogeneous response

NCCCCCC(=O)O [epsilon-aminocaproic acid]
integrity benefit ([4]; at the concentrations tested (0-2.5 mg/ml), day 24 vs day 0): not able to sustain an integrity benefit

CN(Cc1cnc2nc(N)nc(N)c2n1)c1ccc(C(=O)N[C@@H](CCC(=O)O)C(=O)O)cc1 [methotrexate, Methotrexate]
sensitivity of the cell line relative to the other BCa cell lines (MCF7): most resistant
response among the BCa cell lines [3]: heterogeneous response

NC[C@H]1CC[C@H](C(=O)O)CC1 [tranexamic acid, trans-4-(aminomethyl)cyclohexanecarboxylic acid]
weight gain as share of total weight [4, 6]: around 10%
weight gain of 3D culture [4, 6]: about 24 mg

Durvalumab: selective, high-affinity human IgG1 mAb that blocks programmed cell death ligand-1 (PD-L1) binding to PD-1
CD8 infiltration [5]: did reverse CD8 infiltration

Factor XIII: cross-linker of the blood coagulation process, required activation by calcium
cross-linking time (fastest) ([2]; cross-linker at 6 mg/ml, activated by incorporating calcium): over 40 min

thrombin
cross-linking time ([2]; cross-linker at 5 mg/ml): 5 min
